Read-outs that look alike come from different tables or passages of the source.

What is called EC50 is the concentration that produces a half-maximal response.

The subject of series [1] is JAK-STAT signalling in HeLa cells. Kind of series: JAK-STAT signalling assay (OSM-triggered pSTAT1(2)-luciferase reporter in HeLa cells). The note with it: Homo sapiens, read-out: STAT signalling EC50. Type of series: cell-based. The method in brief:
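Read-out is oncostatin M–driven pSTAT1(2)-luciferase activity, corrected by co-transfected LacZ β-galactosidase, in transiently transfected HeLa cells cultured overnight at 37 °C, 10% CO2. Inhibition percentages against positive and negative controls were plotted across doses to derive EC50.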

Series [2] concerns MMP13 in SW1353 cells. Kind of series: OSM/IL-1β signaling assay (MMP13 levels in SW1353 cells).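 Also: secreted MMP13 captured by antibody, activated with APMA and its activity read by fluorescence, inhibition scaled between vehicle-treated triggered wells (0%) and untriggered wells (100%).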 In kind it is cell-based. Particulars: Homo sapiens, read-out: MMP13 EC50.
In series [3] the test system is Collagen Induced Arthritis (CIA). Kind of series: Rat CIA model. In kind it is in vivo. Particulars: therapeutic dosing day 16 to day 30, p.o., statistical significance in several of the readouts. On the procedure:
Completed Freund's adjuvant (CFA) and incomplete Freund's adjuvant (IFA) were purchased from Difco. Bovine collagen type II (CII), lipopolysaccharide (LPS), and Enbrel were obtained from Chondrex (Isle d'Abeau, France); Sigma (P4252, L'Isle d'Abeau, France), Whyett (25 mg injectable syringe, France) Acros Organics (Palo Alto, Calif.), respectively. All other reagents used were of reagent grade and all solvents were of analytical grade.
Dark Agouti rats (male, 7-8 weeks old) were obtained from Harlan Laboratories (Maison-Alfort, France). Rats were kept on a 12 hours light/dark cycle (0700-1900). The temperature was maintained at 22° C., and food and water were provided ad libitum.
One day before the experiment, CII solution (2 mg/mL) was prepared with 0.05 M acetic acid and stored at 4° C. Just before the immunization, equal volumes of adjuvant (IFA) and CII were mixed by a homogenizer in a pre-cooled glass bottle in an ice water bath. Extra adjuvant and prolonged homogenization might be required if an emulsion is not formed. 0.2 mL of the emulsion was injected intradermally at the base of the tail of each rat on day 1, a second booster intradermal injection (CII solution at 2 mg/mL in CFA 0.1 mL saline) was performed on day 9. This immunization method was modified from published methods (Sims N A et al., (2004) Targeting osteoclasts with zoledronic acid prevents bone destruction in collagen-induced arthritis, Arthritis Rheum. 50 2338-2346; Jou et al., 2005).
The therapeutic effects of the test compounds were tested in the rat CIA model. Rats were randomly divided into equal groups and each group contained 10 rats. All rats were immunized on day 1 and boosted on day 9. Therapeutic dosing lasted from day 16 to day 30. The negative control group was treated with vehicle (MC 0.5%) and the positive control group with Enbrel (10 mg/kg, 3× week, s.c.). A compound of interest was typically tested at 3 doses, e.g. 3, 10, 30 mg/kg, p.o.
Arthritis was scored according the method of Khachigian 2006, Lin et al 2007 and Nishida et al. 2004. The swelling of each of the four paws was ranked with the arthritic score as follows: 0-no symptoms; 1-mild, but definite redness and swelling of one type of joint such as the ankle or wrist, or apparent redness and swelling limited to individual digits, regardless of the number of affected digits; 2-moderate redness and swelling of two or more types of joints; 3-severe redness and swelling of the entire paw including digits; 4-maximally inflamed limb with involvement of multiple joints (maximum cumulative clinical arthritis score 16 per animal) (Nishida et al., 2004).
Clinically, body weight loss is associated with arthritis (Shelton et al., 2005; Argiles et al., 1998; Rall, 2004; Walsmith et al., 2004). […] The change in body weight (%) after onset of arthritis was calculated as follows: […]
X-ray photos were taken of the hind paws of each individual animal. A random blind identity number was assigned to each of the photos, and the severity of bone erosion was ranked by two independent scorers with the radiological Larsen's score system as follows: 0-normal with intact bony outlines and normal joint space; 1—slight abnormality with any one or two of the exterior metatarsal bones showing slight bone erosion; 2—definite early abnormality with any three to five of the exterior metatarsal bones showing bone erosion; 3—medium destructive abnormality with all the exterior metatarsal bones as well as any one or two of the interior metatarsal bones showing definite bone erosions; 4—severe destructive abnormality with all the metatarsal bones showing definite bone erosion and at least one of the inner metatarsal joints completely eroded leaving some bony joint outlines partly preserved; 5—mutilating abnormality without bony outlines. This scoring system is a modification from Salvcmini et al., 2001; Bush et al., 2002; Sims et al., 2004; Jou et al., 2005. […]

Series [4] relates to TNF-alpha release. Kind of series: Septic shock model (LPS-induced TNF release). Type of series: in vivo, mouse. Particulars: 30 mg/kg po, BALB/cJ mice, LPS ip; statistically significant. The protocol:
Injection of lipopolysaccharide (LPS) induces a rapid release of soluble tumour necrosis factor (TNF-alpha) into the periphery. This model is used to analyse prospective blockers of TNF release in vivo.
Six BALB/cJ female mice (20 g) per group were treated at the intended dosing once, po. Thirty minutes later, LPS (15 μg/kg; E. Coli serotype 0111:B4) was injected ip. Ninety minutes later, mice were euthanized and blood was collected. Circulating TNF alpha levels were determined using commercially available ELISA kits. Dexamethasone (5 μg/kg) was used as a reference anti-inflammatory compound. Selected compounds are tested at one or multiple doses, e.g. 3 and/or 10 and/or 30 mg/kg, po.

Series [5] is described as follows: Microsomal stability, human liver microsomes. The note with it: percentage of compound remaining after 60 minutes, 3 μM compound. In kind it is in vitro ADME. The method in brief: (§1)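 Percent parent remaining after 60 min was determined by LCMS against a time-zero sample quenched before microsome addition. Incubations ran at 37°C with liver microsomes and a G6PDH-based NADPH-regenerating cofactor mix. Quench was MeOH or ACN (1:1).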

The nature of series [6]: Microsomal stability, rat liver microsomes. In kind it is in vitro ADME. Particulars: percentage of compound remaining after 60 minutes, 3 μM compound. The method in brief:
as §1

Series [7] can be described thus: Caco2 permeability (bi-directional). Type of series: in vitro ADME, human. The note with it: human, pH 7.4; Caco-2, apical to basolateral; read-out: Papp (A2B). The method in brief:
(§2)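 Compound concentrations in both chambers were measured by LC-MS/MS after 1 h incubation at 37 °C on an orbital shaker. Efflux ratio is PappB>A over PappA>B. Lucifer Yellow (50 μM in donor) confirmed layer integrity, with permeability of ≤100 nm/s required.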
On the technique in general: Passage across Caco-2 layers is used to estimate intestinal permeability.

Series [8] relates to Caco-2 cells. Kind of series: Caco2 permeability (bi-directional). In kind it is in vitro ADME, human. Particulars: Caco-2, apical to basolateral. The method in brief: as §2

On to `O=C(Nc1nc2cccc(-c3ccc(CN4CCS(=O)(=O)CC4)cc3)n2n1)C1CC1` [Compound 200, Cyclopropanecarboxylic acid {5-[4-(1,1-dioxo-thiomorpholin-4-ylmethyl)-phenyl]-[1,2,4]triazolo[1,5-a]pyridin-2-yl}-amide], for which the EC50 was 501 to 1000 nM in series [1] (HeLa) and more than 1000 nM in series [2] (SW1353, 48 h). Also, the “efficacy in all readouts of the rat CIA study” value in series [3] is reported as “efficacious in all readouts”. In addition, the “reduction in the TNF release” value in series [4] was more than 50%. For the same compound, the “Microsomal Stability Human (%)” value in series [5] is on record as “**** (**** 76-100)”. Also, the “Microsomal Stability Rat (%)” value in series [6] is given as “*** (*** 51-75)”. Besides, in series [7], the Papp A→B at 1 h, 10 µM came out at 4.65 ×10⁻⁶ cm/s.

On to `N#CC1CN(C(=O)c2ccc(-c3cccc4nc(NC(=O)C5CC5)nn34)cc2)C1` [Compound 328, Cyclopropanecarboxylic acid {5-[4-(3-cyano-azetidine-1-carbonyl)-phenyl]-[1,2,4]triazolo[1,5-a]pyridin-2-yl)-amide], for which the EC50 in series [1] (HeLa cells, OSM-triggered pSTAT1(2)-luciferase reporter) was 501 to 1000 nM; in series [2] (SW1353 cells, OSM and IL-1β triggered, MMP13 levels 48 hours after triggering), more than 1000 nM. Besides, the “Papp (A2B)” value in series [8] is 0.2! cmx10-6sec-1.

The values are drawn from patent US10206907B2, “Compounds useful for the treatment of degenerative and inflammatory diseases” (GALAPAGOS NV, priority 2008, dated 2019).
